# Assay results reported in PubChem BioAssay (NCI).
#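 Results reflect a 48-hour exposure of cells in 96-well plates to compound at five concentrations. Abbreviation: GI50, concentration required for 50% inhibition of growth. At the TGI there is no net growth.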
# Assays:
# Experiment in all cases: NCI tumour cell line growth inhibition, 48 h
# 786-0 renal = tested on: 786-0 renal
# A498 renal = tested on: A498 renal
# A549 NSCLC = tested on: A549 NSCLC
# ACHN renal = tested on: ACHN renal
# CAKI-1 renal = tested on: CAKI-1 renal
# CCRF-CEM leukemia = tested on: CCRF-CEM leukemia
# COLO 205 colon = tested on: COLO 205 colon
# DU-145 prostate = tested on: DU-145 prostate
# EKVX NSCLC = tested on: EKVX NSCLC
# HCC-2998 colon = tested on: HCC-2998 colon
# HCT-116 colon = tested on: HCT-116 colon
# HCT-15 colon = tested on: HCT-15 colon
# HL-60(TB) leukemia = tested on: HL-60(TB) leukemia
# HOP-62 NSCLC = tested on: HOP-62 NSCLC
# HOP-92 NSCLC = tested on: HOP-92 NSCLC
# HS 578T breast = tested on: HS 578T breast
# HT29 colon = tested on: HT29 colon
# IGROV1 ovarian = tested on: IGROV1 ovarian
# K-562 leukemia = tested on: K-562 leukemia
# KM12 colon = tested on: KM12 colon
# LOX IMVI melanoma = tested on: LOX IMVI melanoma
# M14 melanoma = tested on: M14 melanoma
# MALME-3M melanoma = tested on: MALME-3M melanoma
# MCF7 breast = tested on: MCF7 breast
# MDA-MB-231 breast = tested on: MDA-MB-231 breast
# MDA-MB-435 = tested on: MDA-MB-435
# MOLT-4 leukemia = tested on: MOLT-4 leukemia
# NCI-H226 lung = tested on: NCI-H226 lung
# NCI-H23 lung = tested on: NCI-H23 lung
# NCI-H460 lung = tested on: NCI-H460 lung
# NCI-H522 lung = tested on: NCI-H522 lung
# NCI/ADR-RES ovarian = tested on: NCI/ADR-RES ovarian
# OVCAR-3 ovarian = tested on: OVCAR-3 ovarian
# OVCAR-5 ovarian = tested on: OVCAR-5 ovarian
# OVCAR-8 ovarian = tested on: OVCAR-8 ovarian
# PC-3 prostate = tested on: PC-3 prostate
# RPMI-8226 leukemia = tested on: RPMI-8226 leukemia
# RXF 393 renal = tested on: RXF 393 renal
# SF-268 CNS = tested on: SF-268 CNS
# SF-295 CNS = tested on: SF-295 CNS
# SF-539 CNS = tested on: SF-539 CNS
# SK-MEL-28 melanoma = tested on: SK-MEL-28 melanoma
# SK-MEL-5 melanoma = tested on: SK-MEL-5 melanoma
# SK-OV-3 ovarian = tested on: SK-OV-3 ovarian
# SN12C renal = tested on: SN12C renal
# SNB-19 CNS = tested on: SNB-19 CNS
# SR leukemia = tested on: SR leukemia
# SW-620 colon = tested on: SW-620 colon
# T-47D breast = tested on: T-47D breast
# TK-10 renal = tested on: TK-10 renal
# U251 CNS = tested on: U251 CNS
# UACC-257 melanoma = tested on: UACC-257 melanoma
# UACC-62 melanoma = tested on: UACC-62 melanoma
# UO-31 renal = tested on: UO-31 renal
structure (smiles),measurement,setting,value
O=C1NC(=S)S/C1=C/c1ccc2c(c1)OCO2,GI50,786-0 renal,> 100 µM
same,TGI,786-0 renal,> 100 µM
same,GI50,A498 renal,28.7 µM
same,TGI,A498 renal,> 100 µM
same,GI50,A549 NSCLC,> 100 µM
same,TGI,A549 NSCLC,> 100 µM
same,GI50,ACHN renal,> 100 µM
same,TGI,ACHN renal,> 100 µM
same,GI50,CAKI-1 renal,> 100 µM
same,TGI,CAKI-1 renal,> 100 µM
same,GI50,CCRF-CEM leukemia,> 100 µM
same,TGI,CCRF-CEM leukemia,> 100 µM
same,GI50,COLO 205 colon,> 100 µM
same,TGI,COLO 205 colon,> 100 µM
same,GI50,DU-145 prostate,> 100 µM
same,TGI,DU-145 prostate,> 100 µM
same,GI50,EKVX NSCLC,88.4 µM
same,TGI,EKVX NSCLC,> 100 µM
same,GI50,HCC-2998 colon,> 100 µM
same,TGI,HCC-2998 colon,> 100 µM
same,GI50,HCT-116 colon,> 100 µM
same,TGI,HCT-116 colon,> 100 µM
same,GI50,HCT-15 colon,> 100 µM
same,TGI,HCT-15 colon,> 100 µM
same,GI50,HL-60(TB) leukemia,77.3 µM
same,TGI,HL-60(TB) leukemia,> 100 µM
same,GI50,HOP-62 NSCLC,> 100 µM
same,TGI,HOP-62 NSCLC,> 100 µM
same,GI50,HOP-92 NSCLC,17.6 µM
same,TGI,HOP-92 NSCLC,87.7 µM
same,GI50,HS 578T breast,36.8 µM
same,TGI,HS 578T breast,> 100 µM
same,GI50,HT29 colon,> 100 µM
same,TGI,HT29 colon,> 100 µM
same,GI50,IGROV1 ovarian,27.3 µM
same,TGI,IGROV1 ovarian,> 100 µM
same,GI50,K-562 leukemia,> 100 µM
same,TGI,K-562 leukemia,> 100 µM
same,GI50,KM12 colon,> 100 µM
same,TGI,KM12 colon,> 100 µM
same,GI50,LOX IMVI melanoma,> 100 µM
same,TGI,LOX IMVI melanoma,> 100 µM
same,GI50,M14 melanoma,> 100 µM
same,TGI,M14 melanoma,> 100 µM
same,GI50,MALME-3M melanoma,23 µM
same,TGI,MALME-3M melanoma,> 100 µM
same,GI50,MCF7 breast,> 100 µM
same,TGI,MCF7 breast,> 100 µM
same,GI50,MDA-MB-231 breast,> 100 µM
same,TGI,MDA-MB-231 breast,> 100 µM
same,GI50,MDA-MB-435,> 100 µM
same,TGI,MDA-MB-435,> 100 µM
same,GI50,MOLT-4 leukemia,> 100 µM
same,TGI,MOLT-4 leukemia,> 100 µM
same,GI50,NCI-H226 lung,> 100 µM
same,TGI,NCI-H226 lung,> 100 µM
same,GI50,NCI-H23 lung,> 100 µM
same,TGI,NCI-H23 lung,> 100 µM
same,GI50,NCI-H460 lung,> 100 µM
same,TGI,NCI-H460 lung,> 100 µM
same,GI50,NCI-H522 lung,> 100 µM
same,TGI,NCI-H522 lung,> 100 µM
same,GI50,NCI/ADR-RES ovarian,> 100 µM
same,TGI,NCI/ADR-RES ovarian,> 100 µM
same,GI50,OVCAR-3 ovarian,65.1 µM
same,TGI,OVCAR-3 ovarian,> 100 µM
same,GI50,OVCAR-5 ovarian,> 100 µM
same,TGI,OVCAR-5 ovarian,> 100 µM
same,GI50,OVCAR-8 ovarian,> 100 µM
same,TGI,OVCAR-8 ovarian,> 100 µM
same,GI50,PC-3 prostate,82.1 µM
same,TGI,PC-3 prostate,> 100 µM
same,GI50,RPMI-8226 leukemia,> 100 µM
same,TGI,RPMI-8226 leukemia,> 100 µM
same,GI50,RXF 393 renal,> 100 µM
same,TGI,RXF 393 renal,> 100 µM
same,GI50,SF-268 CNS,> 100 µM
same,TGI,SF-268 CNS,> 100 µM
same,GI50,SF-295 CNS,88.3 µM
same,TGI,SF-295 CNS,> 100 µM
same,GI50,SF-539 CNS,> 100 µM
same,TGI,SF-539 CNS,> 100 µM
same,GI50,SK-MEL-28 melanoma,> 100 µM
same,TGI,SK-MEL-28 melanoma,> 100 µM
same,GI50,SK-MEL-5 melanoma,> 100 µM
same,TGI,SK-MEL-5 melanoma,> 100 µM
same,GI50,SK-OV-3 ovarian,> 100 µM
same,TGI,SK-OV-3 ovarian,> 100 µM
same,GI50,SN12C renal,> 100 µM
same,TGI,SN12C renal,> 100 µM
same,GI50,SNB-19 CNS,> 100 µM
same,TGI,SNB-19 CNS,> 100 µM
same,GI50,SR leukemia,> 100 µM
same,TGI,SR leukemia,> 100 µM
same,GI50,SW-620 colon,> 100 µM
same,TGI,SW-620 colon,> 100 µM
same,GI50,T-47D breast,> 100 µM
same,TGI,T-47D breast,> 100 µM
same,GI50,TK-10 renal,> 100 µM
same,TGI,TK-10 renal,> 100 µM
same,GI50,U251 CNS,> 100 µM
same,TGI,U251 CNS,> 100 µM
same,GI50,UACC-257 melanoma,> 100 µM
same,TGI,UACC-257 melanoma,> 100 µM
same,GI50,UACC-62 melanoma,> 100 µM
same,TGI,UACC-62 melanoma,> 100 µM
same,GI50,UO-31 renal,5.8 µM
same,TGI,UO-31 renal,> 100 µM
